From EP4752152A1, “STEROID COMPOUND, AND PREPARATION METHOD THEREFOR AND USE THEREOF” (Cholesgen (Shanghai) Co.Ltd., priority 2023, dated 2025)
pIC50: −log10 of the molar value. ≈ marks a conversion by molar mass, not a printed value. Like-named read-outs stand apart in the source and are kept apart here.

Columns and labels:
[1] = Solubility in fasted-state simulated intestinal fluid (FaSSIF); assay type: physicochemical; conditions: FaSSIF pH 6.5, 300 µM sample solution, room temperature
Experimental: Compound powder was dissolved in DMSO to prepare a 10.0 mM stock solution for later use. 0.021 g NaOH, 0.198 g NaH2PO4, and 0.309 g NaCl were weighed and added to 50.0 mL of ultrapure water. After thorough mixing, the pH was adjusted to 6.5 using HCl or NaOH. Then, 0.112 g of FaSSIF powder was added. After complete dissolution, the solution was allowed to stand at room temperature for 2 hours for later use. A certain volume of the compound stock solution was added to a certain volume of FaSSIF to prepare a 300 µM sample solution, which was mixed at room temperature under 1000 rpm for 1 hour. After 1 hour, the sample was centrifuged, and a certain volume of supernatant was taken. The termination solution was added to precipitate the sample, which was then thoroughly mixed and centrifuged for 20 minutes. The supernatant was then taken again, diluted with dilution solution, and then analyzed by liquid chromatography-tandem mass spectrometry (LC-MS/MS). The concentration of the test compound in the samples was quantitatively determined using LC-MS/MS. Table 3: FaSSIF solubility results of compounds from some examples

SREBP pathway = experiment: SREBP luciferase reporter gene system (SRE-luciferase assay); assay type: cell-based, human; conditions: Huh-7/SRE-luc cells, sterol-deficient medium, 0.01-10 µM
How it was run: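 Readout was SRE-driven luciferase normalised to GFP fluorescence in lysates of stably transfected Huh-7/SRE-luc hepatoma cells. Compounds (0.01, 0.03, 0.1, 0.3, 1.0, 3.0, 10 µM; DMSO control) were applied for 16 h in sterol-depleted medium with 2 µM lovastatin and 10 µM mevalonate; IC50 from variable-slope fit.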

[2] = test system: Fatty Acid Synthase (FASN) gene; experiment: Inhibition of FASN gene expression (qPCR) in Huh-7 cells; assay type: cell-based, human; conditions: read-out: FASN IC50
How it was run: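 IC50 derived by four-parameter fit of FASN expression inhibition versus DMSO, measured by RT-qPCR. Compound exposure lasted 16 h at five 3-fold concentrations from 3000 nM, applied to Huh-7 cells in sterol-depleting medium with 5% LPDS, 2 µM lovastatin and 10 µM mevalonate.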

[3] = FaSSIF, pH 6.5, fassif, kinetic from dmso stock
[4] = Homo sapiens, Huh-7, 16 h, Huh-7 cells, starvation medium, 16 hours, qPCR, class symbols

C[C@H](CCCC(O)c1ccc2c(n1)OC(F)(F)O2)[C@H]1CC[C@H]2[C@H]3[C@H](CC[C@]12C)[C@@]1(C)CC[C@H](O)[C@H](O)[C@@H]1CC3(F)F (single isomer, unassigned) [Compound 265]
solubility at 1 h [1, 3]: 107 µM (≈ 62.9 µg/mL) | IC50 (SREBP pathway; 16 hours): 0.006 µM | pIC50 ([2]; Homo sapiens, Huh-7, 16 h): > 6.70

COc1nc(F)ccc1[C@@H](O)CC[C@@H](C)[C@H]1CC[C@H]2[C@H]3[C@H](CC[C@]12C)[C@@]1(C)CC[C@H](O)[C@H](O)[C@@H]1CC3(F)F [Compound 337, (1R,3aS,3bS,5aR,6R,7S,9aR,9bS,11aR)-4,4-difluoro-1-[(2R,5S)-5-(6-fluoro-2-methoxypyridin-3-yl)-5-hydroxypentan-2-yl]-9a,11a-dimethylhexadecahydro-1H-cyclopenta[1,2-a]phenanthrene-6,7-diol]
solubility at 1 h [1, 3]: 246 µM (≈ 133 µg/mL) | IC50 (SREBP pathway; Homo sapiens, Huh-7, 16 h): 0.155 µM | pIC50 [2, 4]: > 6.70

COc1nc(F)ccc1C(O)CCC[C@@H](C)[C@H]1CC[C@H]2[C@H]3[C@H](CC[C@]12C)[C@@]1(C)CC[C@H](O)[C@H](O)[C@@H]1CC3(F)F (single isomer, unassigned) [Compound 189, (1R,3aS,3bS,5aR,6R,7S,9aR,9bS,11aR)-4,4-difluoro-1-[(2R,6R)-6-(6-fluoro-2-methoxypyridin-3-yl)-6-hydroxyhexan-2-yl]-9a,11a-dimethylhexadecahydro-1H-cyclopenta[1,2-a]phenanthrene-6,7-diol or (1R,3aS,3bS,5aR,6R,7S,9aR,9bS,11aR)-4,4-difluoro-1-[(2R,6S)-6-(6-fluoro-2-methoxypyridin-3-yl)-6-hydroxyhexan-2-yl]-9a,11a-dimethylhexadecahydro-1H-cyclopenta[1,2-a]phenanthrene-6,7-diol]
solubility at 1 h ([1]; 60 min): 157.08 µM (≈ 87 µg/mL) | IC50 (SREBP pathway; 16 hours): 0.0231 µM | pIC50 ([2]; Huh-7 cells, starvation medium, 16 hours, qPCR, class symbols): > 6.70

COc1nc(F)ccc1[C@H](O)CC[C@@H](C)[C@H]1CC[C@H]2[C@H]3[C@H](CC[C@]12C)[C@@]1(C)CC[C@H](O)[C@H](O)[C@@H]1CC3(F)F [Compound 338, (1R,3aS,3bS,5aR,6R,7S,9aR,9bS,11aR)-4,4-difluoro-1-[(2R,5R)-5-(6-fluoro-2-methoxypyridin-3-yl)-5-hydroxypentan-2-yl]-9a,11a-dimethylhexadecahydro-1H-cyclopenta[1,2-a]phenanthrene-6,7-diol]
solubility at 1 h [1, 3]: 34.7 µM (≈ 18.7 µg/mL) | IC50 (SREBP pathway; Homo sapiens, Huh-7, 16 h): 0.143 µM | pIC50 [2, 4]: > 6.70

C[C@H](CCCC(O)c1cccc2ncn(C)c12)[C@H]1CC[C@H]2[C@H]3[C@H](CC[C@]12C)[C@@]1(C)CC[C@H](O)[C@H](O)[C@@H]1CC3(F)F (single isomer, unassigned) [Compound 298, (1R,3aS,3bS,5aR,6R,7S,9aR,9bS,11aR)-4,4-difluoro-1-[(2R,6S)-6-hydroxy-6-(3-methylbenzo[d]imidazol-4-yl)hexan-2-yl]-9a,11a-dimethylhexadecahydro-1H-cyclopenta[1,2-a]phenanthrene-6,7-diol or (1R,3aS,3bS,5aR,6R,7S,9aR,9bS,11aR)-4,4-difluoro-1-[(2R,6R)-6-hydroxy-6-(3-methylbenzo[d]imidazol-4-yl)hexan-2-yl]-9a,11a-dimethylhexadecahydro-1H-cyclopenta[1,2-a]phenanthrene-6,7-diol]
solubility at 1 h [1, 3]: 18.2 µM (≈ 10.2 µg/mL) | IC50 (SREBP pathway; 16 hours): 0.093 µM

CCOc1nc(F)ccc1[C@H](O)CCC[C@@H](C)[C@H]1CC[C@H]2[C@H]3[C@H](CC[C@]12C)[C@@]1(C)CC[C@H](O)[C@H](O)[C@@H]1CC3(F)F (single isomer, unassigned) [Compound 283]
solubility at 1 h [1, 3]: 288 µM (≈ 163 µg/mL) | IC50 (SREBP pathway; Homo sapiens, Huh-7, 16 h): 0.027 µM | pIC50 [2, 4]: > 6.70

C[C@H](CCCC(O)c1cncc2c1OC(F)(F)O2)[C@H]1CC[C@H]2[C@H]3[C@H](CC[C@]12C)[C@@]1(C)CC[C@H](O)[C@H](O)[C@@H]1CC3(F)F (stereo partly drawn) [Compound 297, (1R,3aS,3bS,5aR,6R,7 S,9aR,9bS,11aR)-1-[(2R)-6-(2,2-Difluoro[1,3]dioxolo[4,5-c]pyridin-7-yl)-6-hydroxyhexan-2-yl]-4,4-difluoro-9a,11a-dimethylhexadecahydro-1H-cyclopenta[1,2-a]phenanthrene-6,7-diol]
solubility at 1 h [1, 3]: 19.5 µM (≈ 11.4 µg/mL) | IC50 (SREBP pathway; Homo sapiens, Huh-7, 16 h): 0.197 µM

COc1cc(F)c([C@H](O)CCC[C@@H](C)[C@H]2CC[C@H]3[C@H]4[C@H](CC[C@]23C)[C@@]2(C)CC[C@H](O)[C@H](O)[C@@H]2CC4(F)F)c(F)n1 (single isomer, unassigned) [Compound 240]
solubility at 1 h [1, 3]: 146 µM (≈ 83.4 µg/mL) | IC50 (SREBP pathway; Homo sapiens, Huh-7, 16 h): 0.042 µM

C[C@H](CCCC(O)c1cccc2c1cnn2C)[C@H]1CC[C@H]2[C@H]3[C@H](CC[C@]12C)[C@@]1(C)CC[C@H](O)[C@H](O)[C@@H]1CC3(F)F (single isomer, unassigned) [Compound 249, (1R,3aS,3bS,5aR,6R,7S,9aR,9bS,11aR)-4,4-difluoro-1-[(2R,6S)-6-hydroxy-6-(1-methylindazol-4-yl)hexan-2-yl]-9a,11a-dimethylhexadecahydro-1H-cyclopenta[1,2-a]phenanthrene-6,7-diol or (1R,3aS,3bS,5aR,6R,7S,9aR,9bS,11aR)-4,4-difluoro-1-[(2R,6R)-6-hydroxy-6-(1-methylindazol-4-yl)hexan-2-yl]-9a,11a-dimethylhexadecahydro-1H-cyclopenta[1,2-a]phenanthrene-6,7-diol]
solubility at 1 h [1, 3]: 38.6 µM (≈ 21.6 µg/mL) | IC50 (SREBP pathway; Homo sapiens, Huh-7, 16 h): 0.058 µM

C[C@H](CCCC(O)c1cccc2cn[nH]c12)[C@H]1CC[C@H]2[C@H]3[C@H](CC[C@]12C)[C@@]1(C)CC[C@H](O)[C@H](O)[C@@H]1CC3(F)F (stereo partly drawn) [Compound 224, (1R,3aS,3bS,5aR,6R,7 S,9aR,9bS,11aR)-4,4-Difluoro-1-[(2R)-6-hydroxy-6-(1H-indazol-7-yl)hexan-2-yl]-9a,11a-dimethylhexadecahydro-1H-cyclopenta[1,2-a]phenanthrene-6,7-diol]
solubility at 1 h [1, 3]: 48 µM (≈ 26.1 µg/mL) | IC50 (SREBP pathway; Homo sapiens, Huh-7, 16 h): 0.055 µM

C[C@H](CCCC(O)c1c(F)cc(F)nc1F)[C@H]1CC[C@H]2[C@H]3[C@H](CC[C@]12C)[C@@]1(C)CC[C@H](O)[C@H](O)[C@@H]1CC3(F)F (stereo partly drawn) [Compound 165, (1R,3aS,3bS,5aR,6R,7S,9aR,9bS,11aR)-4,4-difluoro-1-[(2R)-6-hydroxy-6-(2,4,6-trifluoropyridin-3-yl)hexan-2-yl]-9a,11a-dimethylhexadecahydro-1H-cyclopenta[1,2-a]phenanthrene-6,7-diol]
solubility at 1 h [1, 3]: 87.4 µM (≈ 48.9 µg/mL) | IC50 (SREBP pathway; Homo sapiens, Huh-7, 16 h): 0.099 µM

COc1cc(F)c(C(O)CCC[C@@H](C)[C@H]2CC[C@H]3[C@H]4[C@H](CC[C@]23C)[C@@]2(C)CC[C@H](O)[C@H](O)[C@@H]2CC4(F)F)c(F)c1 (some centres unmarked) [Compound 197]
solubility at 1 h [1, 3]: 328 µM (≈ 187 µg/mL) | IC50 (SREBP pathway; Homo sapiens, Huh-7, 16 h): 0.073 µM

COc1nc(F)cnc1C(O)CCC[C@@H](C)[C@H]1CC[C@H]2[C@H]3[C@H](CC[C@]12C)[C@@]1(C)CC[C@H](O)[C@H](O)[C@@H]1CC3(F)F (stereo partly drawn) [Compound 175, (1R,3aS,3bS,5aR,6R,7S,9aR,9bS,11aR)-4,4-difluoro-1-[(2R)-6-(5-fluoro-3-methoxypyrazin-2-yl)-6-hydroxyhexan-2-yl]-9a,11a-dimethylhexadecahydro-1H-cyclopenta[1,2-a]phenanthrene-6,7-diol]
solubility at 1 h [1, 3]: 280 µM (≈ 155 µg/mL) | IC50 (SREBP pathway; Homo sapiens, Huh-7, 16 h): 0.285 µM

C[C@H](CCCC(O)c1cccc2c1cnn2C)[C@H]1CC[C@H]2[C@H]3[C@H](CC[C@]12C)[C@@]1(C)CC[C@H](O)[C@H](O)[C@@H]1CC3(F)F (single isomer, unassigned) [Compound 250, (1R,3aS,3bS,5aR,6R,7S,9aR,9bS,11aR)-4,4-difluoro-1-[(2R,6R)-6-hydroxy-6-(1-methylindazol-4-yl)hexan-2-yl]-9a,11a-dimethylhexadecahydro-1H-cyclopenta[1,2-a]phenanthrene-6,7-diol or (1R,3aS,3bS,5aR,6R,7S,9aR,9bS,11aR)-4,4-difluoro-1-[(2R,6S)-6-hydroxy-6-(1-methylindazol-4-yl)hexan-2-yl]-9a,11a-dimethylhexadecahydro-1H-cyclopenta[1,2-a]phenanthrene-6,7-diol]
solubility at 1 h ([1]; 60 min): 32.95 µM (≈ 18.4 µg/mL) | IC50 (SREBP pathway; 16 hours): 0.066 µM

COc1cc(OC)c([C@@H](O)CCC[C@@H](C)[C@H]2CC[C@H]3[C@H]4[C@H](CC[C@]23C)[C@@]2(C)CC[C@H](O)[C@H](O)[C@@H]2CC4(F)F)c(F)n1 (single isomer, unassigned) [Compound 236]
solubility at 1 h [1, 3]: 305 µM (≈ 178 µg/mL) | IC50 (SREBP pathway; Homo sapiens, Huh-7, 16 h): 0.079 µM
